# Source: patent US20160310581A1, “ADAM10 INHIBITION TO TREAT FRAGILE X SYNDROME” (VIB VZW, priority 2013, published 2016)
# “Also recorded” adds a separate entry of the source.
# Key:
# [1] = tested on: group I metabotropic glutamate receptors (mGluR); settings: DHPG 100 μM, 5 min
# Experimental: Neuronal culture preparation and stimulation. Mouse primary cortical neurons (E15) were prepared as described (Ferrari et al., 2007). Neurons were treated with the mGluRI agonist DHPG (100 uM) for 5 min as described in Napoli et al., 2008.
# Immunoprecipitation and RT-PCR. Mouse brains were lysed and the supernatant was used for the IP according to standardized protocol (Napoli et al., 2008). FMRP antibody or purified rabbit IgGs were incubated with the Protein A Sepharose beads and with brain extract or cells for 1 hr at 4° C. After incubation with the extracts RNA was extracted (Phenol/Chloroform) and precipitated in 2.5 v ethanol. First-strand synthesis was achieved using p(dN)6 and 100 U of Superscript III (Invitrogen) and PCR was performed with GoTaq (Promega), according to the manufacturer's instructions. We used specific oligonucleotides to amplify αCaMKII, App, Adam10, Adam9, Adam17, Cyp46, BC200, D2DR. When RTqPCR was used to quantify immunoprecipitated mRNA, the relative mRNA level in the immunoprecipitation samples was calculated as follows: 2^−[DCp(Ip)−DCp(IgG)]=2^−DDCp, where DCp equals Cp(IP or IgG)-Cp(Input).
# Western Blot. Standard methodologies were used. 5-20 μg of total lysate or synaptoneurosomes were separated by SDS-PAGE electrophoresis and blotted on a PVDF membrane (Millipore). […] Further quantification was performed upon Coomassie staining of the membranes.
# mGluR-dependent LTD = test: DHPG-induced mGluR-LTD, fEPSP recording in hippocampal slices; set-up: species or system mouse; settings: for LTD of fEPSPs, % of baseline: 240 min; for effect on enhanced mGluR-LTD: Fmr1 KO mice, slices 24 h after peptide treatment; for effect on the ability of DHPG to elicit LTD: WT slices/mice, compared with untreated control
# Experimental: Electrophysiology. Animals were euthanized by decapitation, and the right hippocampus was rapidly dissected out into ice-cold (4° C.) artificial cerebrospinal fluid (ACSF) and saturated with carbogen (95% O2/5% CO2). The ACSF consisted of (in mM): 124 NaCl, 4.9 KCl, 24.6 NaHCO3, 1.20 KH2PO4, 2.0 CaCl2, 2.0 MgCl2, and 10.0 glucose, pH 7.4. Transverse slices (400 μm thick) were prepared from the dorsal area of the hippocampus with a tissue chopper and were placed into a submerged-type chamber; samples were kept at 33° C. and continuously perfused with carbogen saturated ACSF at a flow-rate of 2.2 ml/min. After 90 min of incubation, one slice was arbitrarily selected, and a tungsten electrode was placed in the CA1 stratum radiatum. Field excitatory postsynaptic potentials (fEPSPs) were recorded by placing a glass electrode (filled with ACSF, 3-7 MΩ) in the stratum radiatum opposite the stimulating electrode. The time course of the field EPSP was measured as the descending slope function for all sets of experiments. After input/output curves had been established, the stimulation strength was adjusted to elicit a fEPSP-slope of 35% of the maximum and kept constant throughout the experiment. During the baseline recording, 3 single stimuli (0.1 ms pulse width; 10 s interval) were measured every 5 min. The mGluR mediated LTD was induced by a bath application of 30 μM S-DHPG [(S)-3-5-dihydroxy-phenyl glycine; Abcam Chemicals Ltd., Bristol UK] for 15 min (Tambuyzer et al., 2013). During the chemical induction, evoked responses were monitored at 1, 4, 7 and 10 min and then every 5 min until the end of the experiment. All studies were conducted with the experimenter blinded to the treatment regime.
# ADAM10 [2] = test: sAPP release into medium of cultured cortical neurons (western blot); format: cell-based, mouse; settings: Fmr1 KO cortical neurons
# Experimental: Neuronal culture preparation and stimulation.
# (§1) Western Blot. Standard methodologies were used. […] Membranes were incubated using specific antibodies. […] 5 (Molecular Dynamics).
# Peptide treatment. […] P20 mice were given intraperitoneal injections of the two peptides (3 nmol/g) and fractionation performed after 24 hrs. Experiment was conducted on WT and KO littermate mice.
# [3] = tested on: dendritic spines of Fmr1 KO mice; test: Morphological analysis of dendritic spines in vivo (diolistic DiI labelling); set-up: species or system mouse; settings: 3 nmol/g i.p., 24 h, hippocampal sections, vs TAT-Ala Fmr1 KO mice
# Experimental: Morphological analysis. Wild type and Fmr1 KO mice received an intraperitoneal injection with either TAT-Pro or TAT-Ala peptides (3 nmol/g; 14-d-old mice; 8 mice/group). After 24 h, the mice were deeply anaesthetised with an intraperitoneal injection 0.54 mg/g Avertin and then perfused with ice-cold 4% PFA in 0.1M phosphate buffer (PB; 61.2 mM Na2HPO4, 23.2 mM NaH2PO4.H20, pH 7.4). Brains were removed and sectioned in 200 μm thick transverse slices containing both cortex and hippocampus using a Vibratome (Vibratome). Slices were equilibrated in PBS at 4° C. before applying the Dil-coated particles using a diolistic gene-gun system (Bio-Rad laboratories, Italy). 15 min after application, slices were fixed with 4% PFA in 0.1M PB (2 hours) and kept in PB O/N before mounting. Images of Dil-labelled neurons in the hippocampus and cortex were acquired using Zeiss Confocal LSM510 Meta system with 63× objective and a sequential acquisition setting at 1024×1024 pixels resolution. For each image three to four 0.5 μm sections were acquired and z-projection was obtained. Morphological analysis of dendritic spines was performed using freely available ImageJ 1.42q software (Wayne Rasband National Institutes of Health, USA), and spine length, head width and neck width were measured.
# [4] = Marcello et al., 2007; cited from earlier work
# Fmr1 KO mice = test: Behavioral tests: open field (hyperactivity) and T-maze (working memory); format: in vivo, mouse; settings: P24-25
# Experimental: Behavioral tests. All behavioral experiments were performed with P24-25 male mice and blind to the genotype and treatment. We used a minimum of 9 animals per genotype and treatment. Mice were habituated to their new environment for 3 days and tests were conducted during the light phase of their activity cycle. Health and weight of the mice were recorded routinely during the whole period of testing.
# Open-field exploration was tested in 50 cm×50 cm×30 cm (w×l×h) square arena illuminated by indirect light. Animals were dark adapted for 30 min and placed in the arena for 10 min each. Movements of the mice in the arena were video-tracked for 10 min and the images were transmitted to a PC equipped with ANY-maze™ Video Tracking System software (Stoelting Co., IL, USA).
# Spatial working memory was evaluated in a delayed nonmatching alternation test using an elevated open T-shaped maze made of dark grey plastic. The maze was composed of three 50 cm×7 cm×4 cm (l×w×h) arms elevated 25 cm above the ground. Behavior was registered with a PC-interfaced camera and analyzed with ANY-maze™ Video Tracking System software (Stoelting Co., IL, USA). The mouse was subjected to two trials. During the exploration trial, one of the horizontal T-maze arms (novel arm) was blocked with a 10 cm high door and the mouse was placed into the start arm to explore freely the start and familiar arms for 5 min. […]
# ADAM10/SAP97 interaction = ADAM10/SAP97 interaction (Mus musculus, UniProt Q811D0); settings: Marcello et al., 2007; cited from earlier work
# ADAM10 [5] = test: sAPPα levels in brain after intraperitoneal peptide injection (brain fractionation, western blot); format: in vivo, mouse; settings: Fmr1 KO mice; single i.p. injection 3 nmol/g, 24 h; vs TAT-Ala treated Fmr1 KO mice
# Experimental: as §1
# Brain fractionation. Half brain was homogenized in STE buffer (Sucrose 0.32 M, 5 mMTris HCl pH 7.4, 1 mM EDTA, PSMF 0.1 mM, 10 μl ml^−1 Protease inhibitor cocktail (PIC, Sigma). The homogenized tissue was centrifuged at 800 g for 10 min to pull down nuclei. The resulting supernatant was then centrifuged at 55000 rpm 1 h. The supernatant (S1) was collected while the pellet was dissolved in 1% Triton STE Buffer and centrifuged at 55.000 rpm (TLX) for 1 hr. The supernatant is collected (S2) and the final pellet homogenized in SDS Laemmli buffer 1× (Triton-insoluble fraction, P1).
# Peptide treatment. Specific (TAT-PRO) or control (TAT-ALA) peptides (10 μM) were added to the media of DIV14 WT and KO cultured neuron and the release of sAPP was monitored by WB after 24 h. P20 mice were given intraperitoneal injections of the two peptides (3 nmol/g) and fractionation performed after 24 hrs. Experiment was conducted on WT and KO littermate mice.
# ADAM10/SAP97 interaction, sequence (Q811D0 whole entry): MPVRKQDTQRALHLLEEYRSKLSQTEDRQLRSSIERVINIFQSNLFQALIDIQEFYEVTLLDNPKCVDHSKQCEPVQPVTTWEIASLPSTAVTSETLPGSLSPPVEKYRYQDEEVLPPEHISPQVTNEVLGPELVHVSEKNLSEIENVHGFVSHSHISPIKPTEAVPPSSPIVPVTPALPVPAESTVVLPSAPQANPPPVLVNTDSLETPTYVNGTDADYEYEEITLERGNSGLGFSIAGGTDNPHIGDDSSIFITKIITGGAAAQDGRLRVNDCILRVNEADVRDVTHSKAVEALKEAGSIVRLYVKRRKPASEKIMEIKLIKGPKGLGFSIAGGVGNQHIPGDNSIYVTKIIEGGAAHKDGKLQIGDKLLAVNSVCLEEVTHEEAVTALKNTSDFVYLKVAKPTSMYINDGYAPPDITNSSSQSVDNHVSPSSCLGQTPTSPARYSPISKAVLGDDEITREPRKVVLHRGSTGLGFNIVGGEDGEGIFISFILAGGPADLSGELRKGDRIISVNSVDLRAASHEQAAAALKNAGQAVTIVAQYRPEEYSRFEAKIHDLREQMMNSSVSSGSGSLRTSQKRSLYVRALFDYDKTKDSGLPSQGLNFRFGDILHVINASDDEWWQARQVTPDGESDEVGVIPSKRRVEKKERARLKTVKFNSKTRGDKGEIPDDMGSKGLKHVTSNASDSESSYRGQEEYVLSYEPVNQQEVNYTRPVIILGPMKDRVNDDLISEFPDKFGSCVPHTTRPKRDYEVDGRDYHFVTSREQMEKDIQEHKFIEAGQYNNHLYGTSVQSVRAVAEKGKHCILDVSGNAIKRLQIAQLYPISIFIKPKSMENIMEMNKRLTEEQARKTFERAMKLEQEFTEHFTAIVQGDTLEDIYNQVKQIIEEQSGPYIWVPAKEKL
molecule,measurement,setting,value
"N[C@H](C(=O)O)c1cc(O)cc(O)c1 [DHPG, (S)-3-5-dihydroxy-phenyl glycine]",expression of APP,[1]; primary cortical neurons DIV14,induced an increase
same,amount of App mRNA associated with FMRP,[1]; primary cortical neurons,reduced by threefold
same,"LTD of fEPSPs, % of baseline","mGluR-dependent LTD; Fmr1 KO mice slices, DHPG 30 μM, 15 min",28±3%
same,"LTD of fEPSPs, % of baseline","mGluR-dependent LTD; WT slices, DHPG bath application 30 μM, 15 min",53±9%
TAT-Pro: Cell-permeable anti-ADAM10 peptide YGRKKRRQRRRPKLPPPKPLPGTLKRRRPPQP (SEQ ID NO:1): 11 aa Tat transporter sequence linked to 21 aa ADAM10 proline rich domains (Tat-Pro ADAM10 709-729 peptide),sAPP release in the medium,"ADAM10 [2]; peptide 10 μM, 1 h, compared to TAT-Ala exposed neurons",significantly decreases sAPP release; also recorded: reduces sAPP release
same,effect on enhanced mGluR-LTD,"mGluR-dependent LTD; DHPG 30 μM, 15 min, listed as Tat-Pro",prevents mGluR-LTD
same,effect on enhanced mGluR-LTD,"mGluR-dependent LTD; DHPG 30 μM, 15 min, listed as Tat-Pro ADAM10^709-729",sufficient to prevent the enhanced LTD
same,fEPSP after DHPG-induced LTD (% of baseline),"mGluR-dependent LTD; WT slices, 24 h after peptide treatment, DHPG 30 μM, 15 min",65±8%
same,effect on the ability of DHPG to elicit LTD,mGluR-dependent LTD; listed as Tat-Pro,does not impact LTD
same,effect on the ability of DHPG to elicit LTD,mGluR-dependent LTD; listed as Tat-Pro ADAM10^709-729,no detectable effect
same,spines density,[3],decreases spines density
same,spines length,[3],significantly increases
same,spines width,[3],significantly increases
same,blood-brain barrier crossing,[4],crosses the blood-brain barrier
same,"behavioural deficits (open field hyperactivity, T-maze working memory)",Fmr1 KO mice,partially ameliorates the behavioural deficits
same,ADAM10/SAP97 interaction,ADAM10/SAP97 interaction,interferes with ADAM10/SAP97 interaction
same,sAPPα levels in brain,ADAM10 [5],significant reduction of sAPPα levels
"TIMP-1: tissue inhibitor of metalloproteinase-1, an inhibitor of metalloproteinases",sAPP release in the medium,ADAM10 [2]; TIMP-1 15 nM for 4 h,significantly reduces sAPP release
